Patent US12544360B2, “Pharmaceutical composition for preventing or treating coronavirus disease-19” (priority 2020, dated 2026)

What was measured:
SARS-CoV-2 [1] = assay: microbe, parasite or virus in culture; type: cell-based; settings: for IC50: Severe acute respiratory syndrome coronavirus 2, in Primates, Vero cells (monkey kidney cells) infected with SARS-CoV-2
SARS-CoV-2 [2] = assay: microbe, parasite or virus in culture; type: cell-based; settings: for antiviral activity: human lung cells (Calu-3)
[3] = Severe acute respiratory syndrome coronavirus 2, Calu-3 cells (human lung cells) infected with SARS-CoV-2

| Structure (SMILES) | antiviral activity (SARS-CoV-2 [2]) | IC50 (SARS-CoV-2 [1]) [µM] | IC50 (SARS-CoV-2 [2]; [3]) [µM] | other results |
| --- | --- | --- | --- | --- |
| Cc1cc(O)c2c(c1)C(=O)c1cc(O)cc(O)c1C2=O [Emodin] | exhibited antiviral activity | – | – | antiviral activity (SARS-CoV-2 [1]; Vero cells): significant antiviral activities |
| COc1ncc(-c2ccc3nccc(-c4ccnnc4)c3c2)cc1NS(=O)(=O)c1ccc(F)cc1F [Omipalisib] | exhibited antiviral activity | 0.49 | 0.01 | – |
| Cc1cccc(C)c1OCC(=O)N[C@@H](Cc1ccccc1)[C@@H](O)C[C@H](Cc1ccccc1)NC(=O)[C@H](C(C)C)N1CCCNC1=O [lopinavir] | – | 11 | – | – |
| CCN(CC)CCCC(C)Nc1ccnc2cc(Cl)ccc12 (stereo not drawn) [chloroquine] | – | 8.89 | – | – |
| CCN1CCN(c2cc(-c3ccc(F)cc3)c3c(n2)CCCCCC3)CC1 [Blonanserin] | – | – | > 50 | – |
| Cc1cc(O)c2c(=O)c3c(O)cc(O)c4c5c(O)cc(O)c6c(=O)c7c(O)cc(C)c8c1c2c(c34)c(c78)c65 [Hypericin] | – | – | – | IC50 (SARS-CoV-2 [2]; Severe acute respiratory syndrome coronavirus 2, Calu-3): > 50 µM |
